Where two headings read alike, the source gives them in different places.
Legend:
[1] = test system: transformed human cell lines (A549, HT29, Saos-2); assay: 72-h MTT cytotoxicity assay, average over cell lines; assay type: cell-based
Protocol: (§1) The compounds from the examples above were subjected to a standard cellular proliferation assay using human tumour cell lines obtained from the ATCC (American Type Culture Collection, 10801 University Boulevard, Manessas, Va. 20110-2209, USA). Standard 72-h MTT (thiazolyl blue; 3-[4,5-dimethylthiazol-2-yl]-2,5-diphenyltetrazolium bromide) assays were performed. In short: cells were seeded into 96-well plates according to doubling time and incubated overnight at 37° C. Test compounds were made up in DMSO and a 1/3 dilution series prepared in 100 μL cell media, added to cells (in triplicates) and incubated for 72 ho at 37° C. MTT was made up as a stock of 5 mg/mL in cell media and filter-sterilised. Media was removed from cells followed by a wash with 200 μL PBS. MTT solution was then added at 20 μL per well and incubated in the dark at 37° C. for 4 h. MTT solution was removed and cells again washed with 200 μL PBS. MTT dye was solubilised with 200 μL per well of DMSO with agitation. Absorbance was read at 540 nm and data analysed using curve-fitting software (GraphPad Prism version 3.00 for Windows, GraphPad Software, San Diego Calif. USA) to determine IC50 values (concentration of test compound which inhibits cell growth by 50%). Various modifications and variations of the described aspects of the invention will be apparent to those skilled in the art without departing from the scope and spirit of the invention. Although the invention has been described in connection with specific preferred embodiments, it should be understood that the invention as claimed should not be unduly limited to such specific embodiments. Indeed, various modifications of the described modes of carrying out the invention which are obvious to those skilled in the relevant fields are intended to be within the scope of the following claims.

HT29 = assay: 72-h MTT cytotoxicity assay; assay type: cell-based; settings: Homo sapiens, HT-29
Protocol: as §1

A549 = assay: 72-h MTT cytotoxicity assay; assay type: cell-based; settings: Homo sapiens
Protocol: as §1

Saos-2 = assay: 72-h MTT cytotoxicity assay; assay type: cell-based; settings: Homo sapiens
Protocol: as §1

CDK2/cyclin E = CDK2/cyclin E (Homo sapiens, UniProt P24941); assay: Kinase assay, incorporation of radioactive phosphate from ATP; assay type: biochemical; settings: 100 μM ATP, 30° C.; read-out: Kinase inhibition Ki CDK2/cyclin E
Protocol: (§2) The compounds from the examples above were investigated for their ability to inhibit the enzymatic activity of various protein kinases. This was achieved by measurement of incorporation of radioactive phosphate from ATP into appropriate polypeptide substrates. Recombinant protein kinases and kinase complexes were produced or obtained commercially. Assays were performed using 96-well plates and appropriate assay buffers (typically 25 mM β-glycerophosphate, 20 mM MOPS, 5 mM EGTA, 1 mM DTT, 1 mM […], pH 7.4), into which were added 2-4 μg of active enzyme with appropriate substrates. The reactions were initiated by addition of Mg/ATP mix (15 mM MgCl2+100 μM ATP with 30-50 kBq per well of [γ-^32P]-ATP) and mixtures incubated as required at 30° C. Reactions were stopped on ice, followed by filtration through p81 filterplates or GF/C filterplates (Whatman Polyfiltronics, Kent, UK). After washing 3 times with 75 mM aq orthophosphoric acid, plates were dried, scintillant added and incorporated radioactivity measured in a scintillation counter (TopCount, Packard Instruments, Pangboume, Berks, UK). Compounds for kinase assay were made up as 10 mM stocks in DMSO and diluted into 10% DMSO in assay buffer. Data was analysed using curve-fitting software (GraphPad Prism version 3.00 for Windows, GraphPad Software, San Diego Calif. USA) to determine IC50 values (concentration of test compound which inhibits kinase activity by 50%.).

CDK4/cyclin D1 = CDK4/cyclin D1 (Homo sapiens, UniProt P11802); assay: as above; assay type: biochemical; settings: 100 μM ATP, 30° C.; read-out: Kinase inhibition Ki CDK4/cyclin D1
CDK4/cyclin D1, sequence (P11802 whole entry): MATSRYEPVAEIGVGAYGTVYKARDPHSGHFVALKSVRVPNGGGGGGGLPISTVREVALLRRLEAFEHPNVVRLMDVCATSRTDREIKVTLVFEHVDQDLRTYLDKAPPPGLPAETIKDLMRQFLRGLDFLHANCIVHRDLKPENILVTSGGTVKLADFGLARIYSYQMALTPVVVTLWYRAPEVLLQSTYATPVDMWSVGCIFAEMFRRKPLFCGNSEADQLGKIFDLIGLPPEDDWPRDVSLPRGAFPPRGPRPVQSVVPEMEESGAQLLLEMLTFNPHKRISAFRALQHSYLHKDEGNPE
CDK4/cyclin D1, sequence (P24385 whole entry partner): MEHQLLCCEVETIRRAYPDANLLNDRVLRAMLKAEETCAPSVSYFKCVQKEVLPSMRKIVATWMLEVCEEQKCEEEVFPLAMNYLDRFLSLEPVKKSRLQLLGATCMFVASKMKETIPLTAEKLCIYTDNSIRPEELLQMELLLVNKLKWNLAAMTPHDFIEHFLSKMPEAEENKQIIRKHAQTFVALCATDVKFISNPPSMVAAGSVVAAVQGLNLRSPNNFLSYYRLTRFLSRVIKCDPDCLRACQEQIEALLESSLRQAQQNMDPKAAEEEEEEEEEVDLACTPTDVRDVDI
Protocol: as §2

GSK3β = GSK3β (Homo sapiens, UniProt P49841); assay: as above; assay type: biochemical; settings: 100 μM ATP, 30° C.; read-out: Kinase inhibition Ki GSK3β
GSK3β, sequence (P49841 whole entry): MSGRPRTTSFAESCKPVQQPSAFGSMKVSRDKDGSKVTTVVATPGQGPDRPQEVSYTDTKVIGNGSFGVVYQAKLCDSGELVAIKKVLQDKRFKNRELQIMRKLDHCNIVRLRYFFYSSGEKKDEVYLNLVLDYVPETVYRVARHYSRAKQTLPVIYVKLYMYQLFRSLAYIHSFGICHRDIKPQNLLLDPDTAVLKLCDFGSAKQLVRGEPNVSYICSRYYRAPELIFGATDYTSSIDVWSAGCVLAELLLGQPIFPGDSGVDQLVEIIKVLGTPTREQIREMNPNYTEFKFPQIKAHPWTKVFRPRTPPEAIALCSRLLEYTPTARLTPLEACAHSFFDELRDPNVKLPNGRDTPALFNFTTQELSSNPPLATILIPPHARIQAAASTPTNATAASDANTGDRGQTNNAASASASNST
Protocol: as §2

CDK9/cyclin T1 = CDK9/cyclin T1 (Homo sapiens, UniProt P50750); assay: as above; assay type: biochemical; settings: 100 μM ATP, 30° C.; read-out: Kinase inhibition Ki CDK9/cyclin T1
CDK9/cyclin T1, sequence (P50750 whole entry): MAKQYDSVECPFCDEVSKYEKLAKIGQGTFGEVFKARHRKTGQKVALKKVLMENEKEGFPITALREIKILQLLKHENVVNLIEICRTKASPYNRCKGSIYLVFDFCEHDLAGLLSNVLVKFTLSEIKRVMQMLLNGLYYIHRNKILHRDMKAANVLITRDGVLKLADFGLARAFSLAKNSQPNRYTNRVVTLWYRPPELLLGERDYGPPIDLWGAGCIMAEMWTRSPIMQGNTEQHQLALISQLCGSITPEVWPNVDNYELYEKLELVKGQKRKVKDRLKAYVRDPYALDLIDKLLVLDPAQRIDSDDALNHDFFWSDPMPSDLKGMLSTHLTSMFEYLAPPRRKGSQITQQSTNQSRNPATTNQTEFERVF
CDK9/cyclin T1, sequence (O60563 whole entry partner): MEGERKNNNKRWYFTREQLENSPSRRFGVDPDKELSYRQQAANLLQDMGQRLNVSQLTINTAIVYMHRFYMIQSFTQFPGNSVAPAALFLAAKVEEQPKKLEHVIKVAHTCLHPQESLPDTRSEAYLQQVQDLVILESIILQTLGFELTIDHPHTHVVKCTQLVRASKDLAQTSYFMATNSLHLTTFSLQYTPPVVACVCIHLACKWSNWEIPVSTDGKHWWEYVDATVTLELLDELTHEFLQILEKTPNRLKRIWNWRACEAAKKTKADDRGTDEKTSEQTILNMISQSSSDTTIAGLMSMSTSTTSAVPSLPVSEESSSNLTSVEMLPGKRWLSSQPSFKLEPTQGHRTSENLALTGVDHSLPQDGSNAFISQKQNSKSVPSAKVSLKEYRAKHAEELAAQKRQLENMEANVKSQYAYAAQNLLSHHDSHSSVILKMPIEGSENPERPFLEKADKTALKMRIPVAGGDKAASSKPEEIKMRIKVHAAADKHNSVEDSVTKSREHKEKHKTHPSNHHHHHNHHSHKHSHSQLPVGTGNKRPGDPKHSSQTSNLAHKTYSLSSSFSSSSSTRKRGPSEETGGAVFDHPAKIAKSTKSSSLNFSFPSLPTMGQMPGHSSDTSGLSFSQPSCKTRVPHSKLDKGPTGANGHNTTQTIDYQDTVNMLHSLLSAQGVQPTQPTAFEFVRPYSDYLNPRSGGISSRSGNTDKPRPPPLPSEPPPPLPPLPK
Protocol: as §2

CDK2/cyclin A = CDK2/cyclin A (Homo sapiens, UniProt P24941); assay: as above; assay type: biochemical; settings: 100 μM ATP, 30° C.; read-out: Kinase inhibition Ki CDK2/cyclin A
Protocol: as §2

Aurora-A = target: T1, Aurora-A (Homo sapiens, UniProt O14965); assay: as above; assay type: biochemical; settings: 100 μM ATP, 30° C.; read-out: Kinase inhibition Ki Aurora-A
T1 sequence (O14965 1-403): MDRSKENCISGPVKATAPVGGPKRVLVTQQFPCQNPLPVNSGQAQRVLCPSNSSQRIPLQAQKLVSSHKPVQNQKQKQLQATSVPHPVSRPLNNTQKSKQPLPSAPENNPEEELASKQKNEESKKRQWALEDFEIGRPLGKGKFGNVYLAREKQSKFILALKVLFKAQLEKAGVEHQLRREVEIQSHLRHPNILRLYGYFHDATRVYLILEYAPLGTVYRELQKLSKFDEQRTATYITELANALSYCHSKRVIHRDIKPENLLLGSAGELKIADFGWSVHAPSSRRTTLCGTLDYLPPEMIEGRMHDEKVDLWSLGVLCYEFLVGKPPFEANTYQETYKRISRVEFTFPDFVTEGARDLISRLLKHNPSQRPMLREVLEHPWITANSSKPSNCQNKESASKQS
Protocol: as §2

CDK7/cyclin H = CDK7/cyclin H (Homo sapiens, UniProt P50613); assay: as above; assay type: biochemical; settings: 100 μM ATP, 30° C.; read-out: Kinase inhibition Ki CDK7/cyclin H
CDK7/cyclin H, sequence (P50613 whole entry): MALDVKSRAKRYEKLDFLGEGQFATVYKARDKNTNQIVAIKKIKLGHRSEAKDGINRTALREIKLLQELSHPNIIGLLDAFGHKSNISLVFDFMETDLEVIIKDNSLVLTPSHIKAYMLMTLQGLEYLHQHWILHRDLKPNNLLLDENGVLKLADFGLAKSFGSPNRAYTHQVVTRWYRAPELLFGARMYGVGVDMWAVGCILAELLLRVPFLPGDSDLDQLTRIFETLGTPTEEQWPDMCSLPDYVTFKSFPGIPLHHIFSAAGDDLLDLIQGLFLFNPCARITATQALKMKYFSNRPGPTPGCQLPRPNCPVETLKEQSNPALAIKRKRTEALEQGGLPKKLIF
CDK7/cyclin H, sequence (P51946 whole entry partner): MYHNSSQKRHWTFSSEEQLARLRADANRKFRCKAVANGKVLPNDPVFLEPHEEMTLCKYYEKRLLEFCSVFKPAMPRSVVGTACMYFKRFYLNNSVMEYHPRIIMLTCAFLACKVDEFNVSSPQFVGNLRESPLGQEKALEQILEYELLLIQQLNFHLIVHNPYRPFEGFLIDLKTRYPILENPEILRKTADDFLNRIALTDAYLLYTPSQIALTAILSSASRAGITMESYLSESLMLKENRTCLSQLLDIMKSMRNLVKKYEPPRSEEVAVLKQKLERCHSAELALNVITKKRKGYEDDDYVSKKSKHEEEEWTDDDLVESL
Protocol: as §2

CDK1/cyclin B = CDK1/cyclin B (Homo sapiens, UniProt P06493); assay: as above; assay type: biochemical; settings: 100 μM ATP, 30° C.; read-out: Kinase inhibition Ki CDK1/cyclin B
CDK1/cyclin B, sequence (P06493 whole entry): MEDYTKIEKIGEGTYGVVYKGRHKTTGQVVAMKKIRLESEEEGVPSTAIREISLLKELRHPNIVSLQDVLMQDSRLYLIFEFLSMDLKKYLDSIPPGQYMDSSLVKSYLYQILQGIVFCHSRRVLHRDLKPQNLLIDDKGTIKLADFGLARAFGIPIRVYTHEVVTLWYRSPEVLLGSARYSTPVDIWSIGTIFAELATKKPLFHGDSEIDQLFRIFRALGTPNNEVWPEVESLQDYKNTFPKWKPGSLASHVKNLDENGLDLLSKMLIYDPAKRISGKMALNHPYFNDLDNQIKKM
CDK1/cyclin B, sequence (P14635 whole entry partner): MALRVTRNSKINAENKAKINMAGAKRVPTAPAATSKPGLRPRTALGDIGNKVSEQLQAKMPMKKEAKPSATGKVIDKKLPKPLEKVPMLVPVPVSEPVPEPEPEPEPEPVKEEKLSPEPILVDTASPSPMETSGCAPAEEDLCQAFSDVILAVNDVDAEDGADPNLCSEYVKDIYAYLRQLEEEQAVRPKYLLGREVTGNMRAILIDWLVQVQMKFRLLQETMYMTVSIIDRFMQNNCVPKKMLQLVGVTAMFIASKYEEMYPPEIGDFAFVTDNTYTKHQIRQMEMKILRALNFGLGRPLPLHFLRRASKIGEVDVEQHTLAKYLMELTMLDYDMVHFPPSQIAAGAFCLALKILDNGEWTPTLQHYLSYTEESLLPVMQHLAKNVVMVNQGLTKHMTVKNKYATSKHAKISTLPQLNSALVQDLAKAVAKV
Protocol: as §2

[2] = average of A549, HT29, Saos-2, read-out: 72-h MTT IC50 Average

Cc1nc(C)c(-c2ccnc(Nc3ccc[n+](C)c3)n2)s1 [Compound 2, 3-[4-(2,4-Dimethyl-thiazol-5-yl)-pyrimidin-2-ylamino]-1-methyl-pyridinium]
IC50 [1, 2]: 48.7 ± 37.2 µM | melting point: 297 to 300 °C | IC50 (HT29): 86 µM | IC50 (A549): 11.6 µM | IC50 (Saos-2): 48.5 µM | Ki (CDK2/cyclin E): 1.5 µM | Ki (CDK4/cyclin D1): 4.1 µM

Cc1nc(C)c(-c2ccnc(Nc3ccc(Cl)nc3)n2)s1 [Compound 3, (6-Chloro-pyridin-3-yl)-[4-(2,4-dimethyl-thiazol-5-yl)-pyrimidin-2-yl]-amine]
IC50 [1, 2]: 5.7 ± 3.7 µM | IC50 ([1]; in vitro, read-out: IC50 value (average) against one or more transformed human cell lines, 72-h MTT cytotoxicity assay): < 10 µM | IC50 (HT29): 2.8 µM | IC50 (A549): 9.8 µM | IC50 (Saos-2): 4.4 µM | Ki (GSK3β): 0.11 µM | Ki (CDK9/cyclin T1): 0.97 µM | Ki (CDK2/cyclin E): 0.35 µM | Ki (CDK2/cyclin A): 1.7 µM | Ki (Aurora-A): 0.86 µM | Ki (CDK4/cyclin D1): 0.66 µM | Ki (CDK7/cyclin H): 7.2 µM | Ki (CDK1/cyclin B): 4.2 µM
